# In PMC8361756, “Treatment of Cardiovascular Dysfunction With PDE5-Inhibitors – Temperature Dependent Effects on Transport and Metabolism of cAMP and cGMP” (Frontiers in Physiology, 2021):
# Read-outs that look alike come from different tables or passages of the source.
# Columns and labels:
# PDE3 = conditions: for IC25–IC75 interval PDE3: concentration needed to increase inhibition from 25% to 75%; for IC50: read-out: IC50 PDE3, 5 μM cAMP, 30 min; for Ki: read-out: Ki PDE3-inhibition, Cheng-Prusoff from IC50
# Description: (§1) The assays were performed in triplicates at three different days. […] The reaction was started by adding either a solution containing 0.016 units/μg protein of PDE3 (Abcam, Cambridge United Kingdom), or 0.022 units/μg protein of PDE5 (Sigma-Aldrich, St. Louis, MO, United States), to the Eppendorf tubes. Parallels for cAMP-metabolism included PDE3 only and parallels for cGMP-metabolism included PDE5 only. Control samples were free of drug and was either with or without PDE3 or PDE5. This was done to assure that only the relevant PDE was responsible for breakdown of the cyclic nucleotide, as no other enzyme nor cellular material was added to the incubations. The incubation time was 30 min (see Table 2). Reaction was stopped by adding methanol to the tubes. Internal standard of cGMP/GMP or cAMP/AMP (Sigma-Aldrich, St. Louis, MO, United States, Germany and Toronto Research Chemicals Inc., Toronto, ON, Canada) were added to each sample. Five samples contained only known concentrations of cGMP/GMP or cAMP/AMP and served as calibrators. Samples were analyzed for cGMP/GMP and cAMP/AMP content, using MS.
# PDE5 = PDE5 (Homo sapiens, UniProt O76074); conditions: concentration needed to increase inhibition from 25% to 75%
# Description: as §1
# cGMP-efflux (ABCC5) = cGMP-efflux (ABCC5) (Homo sapiens, UniProt O15440); type: biochemical; conditions: for IC25–IC75 interval cGMP-efflux: concentration needed to increase inhibition from 25% to 75%
# Description: (§2) Cellular extrusion was determined using the inside-out vesicle (IOV) method where erythrocytes from healthy, human donors were sampled. […] The erythrocytes were separated from plasma by centrifugation and washed. […] The membrane vesiculation was initiated by adding […] buffer to the cell suspension. After centrifugation, the suspension was forced through a syringe needle to enhance homogenization of the membranes. IOVs were separated from right side out vesicles (ROV) and unsealed erythrocyte membranes (ghosts) by ultracentrifugation overnight using a density gradient. The uppermost band was collected, washed, and resuspended. […] Batches of IOVs used in the parallels were made eight times, including blood from a total of 35 healthy donors.
# (§3) The incubation solutions also included radioactive labeled [^3H]-cGMP and [^3H]-cAMP (Perkin Elmer, Boston, MA, United States), at a concentration of, respectively, 2 μM and 20 μM. […] Incubation time of 60 min was chosen to ensure sufficient quality of the samples for each parallel (Table 2). The transport was stopped by adding ice cold buffer. The IOVs were then filtered through a nitrocellulose membrane (Bio-Rad Laboratories, Feldkirchen, Germany), and the membrane was dried. The dried membranes were later added scintillation fluid and radioactivity was measured using a Packard TopCount NXT (Packard, Downers Grove, IL, United States).
# (§4) Experiments determined total ATP-dependent cellular efflux of cGMP or cAMP from IOVs.
# cAMP-efflux (ABCC4) = molecular target: T1, cAMP-efflux (ABCC4) (Homo sapiens, UniProt O15439); experiment: biochemical; type: biochemical; conditions: for Inhibition of cAMP-efflux: 1.00 nM to 1.00 mM; for Inhibition of cAMP-efflux / IC50: 60 min, IOV; for IC25–IC75 interval cAMP-efflux: concentration needed to increase inhibition from 25% to 75%; for IC50: 20 μM [3H]-cAMP; for Ki: Cheng-Prusoff from IC50
# T1 construct: from tissue; host or cells: human erythrocyte membranes (inside-out vesicles), pooled donors
# T1 sequence (O15439 1-1325): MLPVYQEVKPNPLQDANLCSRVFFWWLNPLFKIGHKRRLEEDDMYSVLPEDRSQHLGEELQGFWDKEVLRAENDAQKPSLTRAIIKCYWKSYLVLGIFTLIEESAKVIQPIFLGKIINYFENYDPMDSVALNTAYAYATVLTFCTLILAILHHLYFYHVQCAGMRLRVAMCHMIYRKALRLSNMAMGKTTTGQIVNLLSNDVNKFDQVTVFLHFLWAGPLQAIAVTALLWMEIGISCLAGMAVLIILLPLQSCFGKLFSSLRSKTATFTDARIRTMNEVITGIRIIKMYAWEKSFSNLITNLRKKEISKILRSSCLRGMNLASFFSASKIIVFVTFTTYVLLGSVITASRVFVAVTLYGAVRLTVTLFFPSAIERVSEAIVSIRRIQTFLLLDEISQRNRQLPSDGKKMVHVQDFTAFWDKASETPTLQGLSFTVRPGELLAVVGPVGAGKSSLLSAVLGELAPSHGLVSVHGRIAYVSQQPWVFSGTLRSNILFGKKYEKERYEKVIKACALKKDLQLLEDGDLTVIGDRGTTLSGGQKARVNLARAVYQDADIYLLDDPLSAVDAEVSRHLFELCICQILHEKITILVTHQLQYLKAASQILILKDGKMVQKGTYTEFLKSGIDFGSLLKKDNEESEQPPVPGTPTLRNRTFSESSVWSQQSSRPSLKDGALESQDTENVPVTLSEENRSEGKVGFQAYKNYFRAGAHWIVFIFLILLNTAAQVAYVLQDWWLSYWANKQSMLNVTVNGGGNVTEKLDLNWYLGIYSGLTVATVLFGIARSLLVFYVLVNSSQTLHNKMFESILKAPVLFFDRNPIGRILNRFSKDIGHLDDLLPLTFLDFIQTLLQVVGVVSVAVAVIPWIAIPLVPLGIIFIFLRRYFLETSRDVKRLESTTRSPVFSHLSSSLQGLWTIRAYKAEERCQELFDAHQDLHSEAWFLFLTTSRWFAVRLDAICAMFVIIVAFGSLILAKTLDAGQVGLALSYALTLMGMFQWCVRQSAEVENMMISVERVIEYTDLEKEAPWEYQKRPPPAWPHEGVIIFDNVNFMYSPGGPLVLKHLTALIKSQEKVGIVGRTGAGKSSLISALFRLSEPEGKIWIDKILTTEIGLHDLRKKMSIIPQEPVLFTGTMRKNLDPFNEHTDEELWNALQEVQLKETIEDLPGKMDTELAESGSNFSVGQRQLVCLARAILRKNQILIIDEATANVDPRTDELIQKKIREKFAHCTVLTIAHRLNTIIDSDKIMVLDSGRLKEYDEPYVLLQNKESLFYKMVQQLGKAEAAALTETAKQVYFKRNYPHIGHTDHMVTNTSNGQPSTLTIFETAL
# Description: as §2, §3, §4
# [1] = ref Walker (1999); cited from earlier work
# Sequence of cGMP-efflux (ABCC5) (O15440 whole entry): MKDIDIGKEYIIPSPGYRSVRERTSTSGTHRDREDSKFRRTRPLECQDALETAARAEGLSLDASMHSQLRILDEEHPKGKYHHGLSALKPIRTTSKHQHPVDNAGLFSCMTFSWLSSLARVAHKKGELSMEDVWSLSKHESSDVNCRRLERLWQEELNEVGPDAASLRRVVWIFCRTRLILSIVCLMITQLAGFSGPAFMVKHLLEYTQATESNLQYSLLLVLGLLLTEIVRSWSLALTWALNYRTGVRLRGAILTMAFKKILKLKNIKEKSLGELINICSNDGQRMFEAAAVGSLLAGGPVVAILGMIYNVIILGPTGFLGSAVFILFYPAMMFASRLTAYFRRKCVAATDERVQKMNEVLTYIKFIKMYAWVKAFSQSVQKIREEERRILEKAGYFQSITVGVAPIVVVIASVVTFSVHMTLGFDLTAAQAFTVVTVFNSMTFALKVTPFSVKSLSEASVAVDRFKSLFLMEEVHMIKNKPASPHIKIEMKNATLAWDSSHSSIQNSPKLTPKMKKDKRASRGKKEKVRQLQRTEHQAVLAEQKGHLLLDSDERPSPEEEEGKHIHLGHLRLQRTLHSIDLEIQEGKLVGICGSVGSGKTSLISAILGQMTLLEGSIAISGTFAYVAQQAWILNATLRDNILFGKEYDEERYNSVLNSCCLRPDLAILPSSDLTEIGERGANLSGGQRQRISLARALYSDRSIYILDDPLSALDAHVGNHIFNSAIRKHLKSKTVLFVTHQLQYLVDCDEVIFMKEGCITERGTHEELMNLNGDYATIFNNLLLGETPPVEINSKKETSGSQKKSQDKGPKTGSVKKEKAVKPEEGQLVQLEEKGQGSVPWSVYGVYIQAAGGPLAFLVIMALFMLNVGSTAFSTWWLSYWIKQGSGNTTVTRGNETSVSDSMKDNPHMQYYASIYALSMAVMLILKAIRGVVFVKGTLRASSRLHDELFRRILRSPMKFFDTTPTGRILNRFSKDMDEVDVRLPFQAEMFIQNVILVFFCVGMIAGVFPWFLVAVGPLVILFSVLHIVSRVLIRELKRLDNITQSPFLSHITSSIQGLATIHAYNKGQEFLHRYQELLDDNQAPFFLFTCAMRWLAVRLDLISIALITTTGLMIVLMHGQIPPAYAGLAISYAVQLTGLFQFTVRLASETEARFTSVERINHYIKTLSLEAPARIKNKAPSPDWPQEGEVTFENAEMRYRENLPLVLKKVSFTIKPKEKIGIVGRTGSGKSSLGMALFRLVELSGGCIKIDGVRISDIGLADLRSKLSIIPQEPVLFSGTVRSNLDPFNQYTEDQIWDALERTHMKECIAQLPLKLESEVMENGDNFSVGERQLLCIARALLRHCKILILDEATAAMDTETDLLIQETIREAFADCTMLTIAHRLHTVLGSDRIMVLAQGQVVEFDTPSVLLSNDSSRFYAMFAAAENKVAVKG
structure (smiles),measurement,setting,value
CCCc1nn(C)c2c(=O)[nH]c(-c3cc(S(=O)(=O)N4CCN(C)CC4)ccc3OCC)nc12 [Sildenafil],IC25–IC75 interval PDE3,PDE3; 20°C,[…]
same,IC25–IC75 interval PDE5,PDE5; 20°C,0.132 ± 0.048 µM
same,IC25–IC75 interval PDE5,"PDE5; 20°C, listed as sildenafil",0.132 ± 0.048 µM
same,IC25–IC75 interval PDE5,PDE5; 24°C,0.098 ± 0.012 µM
same,IC25–IC75 interval PDE5,"PDE5; 24°C, listed as sildenafil",0.098 ± 0.012 µM
same,IC25–IC75 interval PDE5,PDE5; 28°C,0.083 ± 0.008 µM
same,IC25–IC75 interval PDE5,PDE5; 32°C,0.060 ± 0.006 µM
same,IC25–IC75 interval PDE5,PDE5; 34°C,0.055 ± 0.004 µM
same,IC25–IC75 interval PDE5,PDE5; 37°C,0.038 ± 0.000 µM
same,IC25–IC75 interval cGMP-efflux,cGMP-efflux (ABCC5); 20°C,19.2 ± 8.45 µM
same,IC25–IC75 interval cGMP-efflux,cGMP-efflux (ABCC5); 24°C,11.4 ± 4.73 µM
same,IC25–IC75 interval cGMP-efflux,cGMP-efflux (ABCC5); 28°C,12.0 ± 1.96 µM
same,IC25–IC75 interval cGMP-efflux,cGMP-efflux (ABCC5); 32°C,9.76 ± 3.99 µM
same,IC25–IC75 interval cGMP-efflux,cGMP-efflux (ABCC5); 34°C,13.5 ± 1.74 µM
same,IC25–IC75 interval cGMP-efflux,cGMP-efflux (ABCC5); 37°C,23.6 ± 9.08 µM
same,Inhibition of cAMP-efflux,cAMP-efflux (ABCC4); 20°C,neither of the drugs were able to inhibit cAMP-efflux
same,Inhibition of cAMP-efflux,cAMP-efflux (ABCC4); 24°C,neither of the drugs were able to inhibit cAMP-efflux
same,IC25–IC75 interval cAMP-efflux,cAMP-efflux (ABCC4); 28°C,13.8 ± 3.85 µM
same,IC25–IC75 interval cAMP-efflux,cAMP-efflux (ABCC4); 32°C,20.0 ± 4.27 µM
same,IC25–IC75 interval cAMP-efflux,cAMP-efflux (ABCC4); 34°C,19.8 ± 1.82 µM
same,IC25–IC75 interval cAMP-efflux,cAMP-efflux (ABCC4); 37°C,27.1 ± 9.36 µM
same,Protein binding,[1],94–96%
CCCc1nc(C)c2c(=O)[nH]c(-c3cc(S(=O)(=O)N4CCN(CC)CC4)ccc3OCC)nn12 [Vardenafil],IC25–IC75 interval PDE3,PDE3; 20°C,709 ± 105 µM
same,IC25–IC75 interval PDE3,PDE3; 24°C,148 ± 31.9 µM
same,IC25–IC75 interval PDE3,PDE3; 28°C,128 ± 35.9 µM
same,IC25–IC75 interval PDE3,PDE3; 32°C,107 ± 27.0 µM
same,IC25–IC75 interval PDE3,PDE3; 34°C,72.1 ± 3.24 µM
same,IC25–IC75 interval PDE3,PDE3; 37°C,61.0 ± 14.3 µM
same,IC50,PDE3; 20°C,73.4 ± 26.3 µM
same,IC50,PDE3; 24°C,55.5 ± 4.75 µM
same,IC50,PDE3; 28°C,32.7 ± 11 µM
same,IC50,PDE3; 32°C,40.5 ± 3.78 µM
same,IC50,PDE3; 34°C,24.9 ± 5.73 µM
same,IC50,PDE3; 37°C,16.5 ± 6.08 µM
same,Ki,PDE3; 20°C,3.36 ± 1.21 µM
same,Ki,PDE3; 24°C,2.54 ± 0.218 µM
same,Ki,PDE3; 28°C,1.5 ± 0.505 µM
same,Ki,PDE3; 32°C,1.85 ± 0.173 µM
same,Ki,PDE3; 34°C,1.14 ± 0.263 µM
same,Ki,PDE3; 37°C,0.757 ± 0.276 µM
same,IC25–IC75 interval PDE5,PDE5; 20°C,0.103 ± 0.027 µM
same,IC25–IC75 interval PDE5,PDE5; 24°C,0.074 ± 0.005 µM
same,IC25–IC75 interval PDE5,PDE5; 28°C,0.049 ± 0.016 µM
same,IC25–IC75 interval PDE5,PDE5; 32°C,0.062 ± 0.016 µM
same,IC25–IC75 interval PDE5,PDE5; 34°C,0.028 ± 0.012 µM
same,IC25–IC75 interval PDE5,PDE5; 37°C,0.059 ± 0.029 µM
same,IC25–IC75 interval cGMP-efflux,cGMP-efflux (ABCC5); 20°C,28.1 ± 14.6 µM
same,IC25–IC75 interval cGMP-efflux,cGMP-efflux (ABCC5); 24°C,13.0 ± 1.74 µM
same,IC25–IC75 interval cGMP-efflux,cGMP-efflux (ABCC5); 28°C,10.6 ± 2.75 µM
same,IC25–IC75 interval cGMP-efflux,cGMP-efflux (ABCC5); 32°C,18.0 ± 4.12 µM
same,IC25–IC75 interval cGMP-efflux,cGMP-efflux (ABCC5); 34°C,19.2 ± 3.16 µM
same,IC25–IC75 interval cGMP-efflux,cGMP-efflux (ABCC5); 37°C,12.6 ± 3.89 µM
same,"Linear regression equation, IC50 inhibition of cGMP-efflux vs temperature",cGMP-efflux (ABCC5); not told,y = 9.64 − 0.098x
same,Inhibition of cAMP-efflux,cAMP-efflux (ABCC4); 20°C,neither of the drugs were able to inhibit cAMP-efflux
same,Inhibition of cAMP-efflux,cAMP-efflux (ABCC4); 24°C,neither of the drugs were able to inhibit cAMP-efflux
same,IC50,cAMP-efflux (ABCC4); 28°C,9.63 ± 5.79 µM
same,Ki,cAMP-efflux (ABCC4); 28°C,5.84 ± 3.51 µM
same,IC25–IC75 interval cAMP-efflux,cAMP-efflux (ABCC4); 28°C,17.3 ± 6.59 µM
same,IC50,cAMP-efflux (ABCC4); 32°C,13 ± 1.69 µM
same,Ki,cAMP-efflux (ABCC4); 32°C,7.86 ± 1.02 µM
same,IC25–IC75 interval cAMP-efflux,cAMP-efflux (ABCC4); 32°C,27.3 ± 6.19 µM
same,IC50,cAMP-efflux (ABCC4); 34°C,5.82 ± 0.685 µM
same,Ki,cAMP-efflux (ABCC4); 34°C,3.53 ± 0.415 µM
same,IC25–IC75 interval cAMP-efflux,cAMP-efflux (ABCC4); 34°C,19.9 ± 0.967 µM
same,IC50,cAMP-efflux (ABCC4); 37°C,5.85 ± 0.51 µM
same,Ki,cAMP-efflux (ABCC4); 37°C,3.55 ± 0.311 µM
same,IC25–IC75 interval cAMP-efflux,cAMP-efflux (ABCC4); 37°C,30.9 ± 6.82 µM
same,"Linear regression equation, IC50 inhibition of cAMP-efflux vs temperature",cAMP-efflux (ABCC4); not told,y = 26.4 − 0.545x
